Measurements taken from patent US6689777B2 (Kenneth S. Warren Institute, priority 2001, dated 2004).
Structures can show the parent of a compound that is named as a salt. Where two headings read alike, the source gives them in different places.

Legend:
P. falciparum [1] = assay: P. falciparum growth in culture ([3H]-hypoxanthine incorporation); type: cell-based; details: [3H]-hypoxanthine incorporation, read-out: IC50 vs. P. falc.
Description: To determine the effectiveness of the compounds of the present invention against the erythrocytic stage of the malarial parasite, P. falciparum was grown in human erythrocyte suspensions and maintained at 37° C. in candle jars according to the method of Trager and Jensen (15,16). Parasites were stage-synchronized by incubating mainly ring-stage infected erythrocytes in 5% sorbitol for 10 minutes at room temperature (17). Cultures undergo one growth cycle (2 days) before use. Strains used include the chloroquine sensitive strains D10 and HB3, and the chloroquine resistant isolates Dd2 and FCR.
Parasite growth was determined by measuring incorporation of [^3H]-hypoxanthine into the nucleic acids of the parasite (18). Effects of the compounds of the present invention on parasite growth was determined by measuring the reduction in incorporation of radiolabel as compared to controls. Briefly, assays are performed in 96-well microtiter plates. After 24 h of candle jar incubation at 37° C., [^3H]-hypoxanthine is added to each well. After 18 h the plates are harvested onto glass fiber filter 96 well plates using a cell harvester, dried, and the amount of radioactivity is determined. Drug IC50 values (molar concentration which decreases [^3H]-hypoxanthine incorporation by 50% as compared to drug-free controls) are calculated by extrapolation of the log dose-response curves using curve fitting software (Origin, Microcal Software, Northampton, Mass.).
Parasites were grown in A^+ human erythrocyte suspensions using RPMI-1640 (GIBCO, Gaithersburg, Md.) medium supplemented by 25 mM HEPES (pH 7.35), 0.2% NaHCO3 (23 mM), 0.2% (D)-Glucose and 10% human A^+ plasma and maintained at 37° C. in candle jars according to the method of Trager and Jensen (20,21) Parasites are stage synchronized by incubating mainly ring-stage infected erythrocytes in 5% sorbitol for 10 minutes at room temperature (22). Cultures undergo one growth cycle (2 days) before use. Strains used include the chloroquine sensitive strains D10 and HB3, and the chloroquine resistant isolates Dd2 and FCR.
Parasite growth was determined by measuring incorporation of [^3H]-hypoxanthine into the nucleic acids of the parasite as previously described (23). Effects of the compounds of the present invention on parasite growth was determined by measuring the reduction in incorporation of radiolabel as compared to controls. Briefly, assays were performed in 96-well microtiter plates, each well containing 200 μl of synchronized ring-stage infected erythrocytes in complete media and 50 μl of drug dilution or solvent. The final hematocrit was 1.5% and percent parasitemias range from 2-8%. After 24 h of candle jar incubation at 37° C., 2.5 μCi of [^3H]-hypoxanthine (17 Ci/mmol, Amersham, Arlington Heights, Ill.) in RPMI-1640 media supplemented with 25 mM HEPES (pH 7.35), 0.2% NaHCO3 (23 mM), 0.2% (D)-Glucose is added to each well. After 18 h the plates were harvested onto glass fiber filter 96 well plates using a cell harvester, dried, and 25 μl scintillation acid added per well. The, amount of radioactivity was determined. Drug IC50 values (molar concentration which decreases [^3H]-hypoxanthine incorporation by 50% as compared to drug-free controls) are calculated by extrapolation of the log dose-response curves using curve fitting software (Origin, Microcal Software, Northampton, Mass.). The effects on parasite grown by aromatic guanyllhydrazones, bisguanylhydrazones, naphthothiazolium salts, and other compounds of the instant invention, together with data on hemozoin depolymerization from Example 5, are shown in tables 1 through 4, respectively.

P. falciparum [2] = assay: as above; type: cell-based; details: Plasmodium falciparum, read-out: IC50 vs. P. falc.
synthetic hemozoin = assay: Depolymerization of synthetic hemozoin in vitro; type: biochemical; details: 50 mM test compound, acetate buffer pH 5.0, 37° C., 16 hours
Description: This activity is evaluated by incubating a suspension of monomer-free hemozoin at 37° C. with compounds of the present invention for 16 hours. After incubation, hemozoin is separated from any solubilized heme and soluble heme oligomers, the oligomers depolymerized, and the heme present in the supernatants determined.
The synthesis of synthetic hemozoin is carried out as previously described (26). In brief, 60 μmoles of hematin was dissolved in 8 ml of 0.1N NaOH. Following dissolution 49 mmoles of glacial acetic acid was added and the suspension heated at 70° C. overnight. The precipitate was then washed extensively with LPS-free water. In order to remove unreacted heme the precipitate was extracted with 0.1M sodium bicarbonate (pH 9.1) for three hours. The remaining insoluble material was recovered by centrifugation, resuspended in EtOH and transferred to sterile Eppendorf tubes. The material was washed several times in EtOH and finally resuspended in LPS-free double-distilled H2O. The hemozoin preparation was then tested for endotoxin by using the Limulus Amebocyte Lysate test following manufacturer's instructions. Although the preparation of LPS-free hemozoin from native or synthetic sources is not critical for in vitro depolymerization studies, it is critical for studies involving monocytes and animals (see Examples below). Small amounts of LPS can evoke a considerable cytokine response and interfere with interpretation of results. The amount of heme in the final product was determined from a small aliquot using the pyridine-hemochrome method as previously described (26). The preparations are stored at 4° C. until used.
A suspension of monomer-free hemozoin (equivalent to 2 mM free heme) as prepared above was incubated at 37° C. with […] test compound in total volume of 500 μl in acetate buffer (pH: 5.0) in siliconized Eppendorf tubes (Brinkmann Instruments, Westbury, N.Y.) for 16 hours. A control sample containing distilled H2O instead of hemozoin was included. The samples were centrifuged at 14,000 rpm (Eppendorf centrifuge model 5415C, Brinkmann Instruments, Westbury, N.Y.) for 20 min; then 225 μl supernatant was diluted in 175 μl acetate buffer (pH 5.0). Another 225 μl was added to 175 μl 0.5 M NaOH to dissolve possible oligomeric depolymerization products to monomers. Half of the pellet was washed twice for 2.5 hr in 200 μl 2.5% SDS (v/v) in dH2O, the other half was washed twice in 200 μl HCO3^− buffer (pH: 9.1). Both sample supernatants and SDS and HCO3^− buffer supernatants were centrifuged 14,000 rpm for 20 min. and supernatants were added to 10 μl sodium dithionite (200 mg/ml dH2O) to reduce the heme monomers in solution to Fe^2+. All samples were measured in triplicate at 540 nm (Model UV1601 spectrophotometer, Shimradzu Corp, Columbia, Md.). The OD obtained from the blind sample was subtracted from the OD of the hemozoin containing sample.

[3] = Table 1, aryl monoguanylhydrazones, growth in culture
[4] = Table 3, naphthothiazolium salts, in culture

| Structure (SMILES) | IC50 (P. falciparum [2]; [3]) [µM] | % depol. hemoz. (synthetic hemozoin; Table 1) [%] | IC50 (P. falciparum [2]; [4]) [µM] | % depol. hemoz. (synthetic hemozoin; Table 3) [%] | also measured |
| --- | --- | --- | --- | --- | --- |
| CC(=NNC(=N)N)c1cccc(C(C)=NNC(=N)N)c1N [2,2′-[(2-amino-1,3-phenylene)diethylidyne]bis(hydrazinecarboximidamide) dihydrochloride] |  |  |  |  | IC50 (P. falciparum [1]; Table 2, aromatic bisguanylhydrazones, growth in culture): 6.3 µM |
| Cl.N=C(N)NN=Cc1cccc(O)c1O [2-[(2,3-dihydroxyphenyl)methylene]hydrazinecarboximidamide hydrochloride] | > 10 | 4.1 |  |  |  |
| Cc1c(O)c2ccccc2c2c1sc(Nc1ccccc1)[n+]2C.[Cl-] [1,2-dihydro-1,4-dimethyl-2-(phenylimino)naphtho[1,2-d]thiazol-5-ol monohydrochloride] |  |  | > 10 | 0.0 |  |
| CC(=NNC(=N)N)c1ccc(OCc2ccccc2)c(C)c1O.Cl [2-[1-(4-benzyloxy-2-hydroxy-3-methylphenyl)ethylidene]hydrazinecarboximidamide hydrochloride] | 1.33 | 1.9 |  |  |  |
| N=C(N)NN=CCc1ccc2ccccc2c1O [2-[(1-hydroxy-2-naphthyl)ethylidene]hydrazinecarboximidamide hydrochloride] | 6 |  |  |  |  |
| Cc1c(O)c2ccccc2c2sc(NCCCN3CCOCC3)nc12 [4-methyl-2-[[3-(4-morpholino)propyl]amino]naphtho[1,2-d]thiazol-5-ol dihydrochloride] |  |  |  |  | IC50 (P. falciparum [1]; [4]): 0.6 µM |
| C/C(=N\NC(=O)CN(C)C)c1cccc(/C(C)=N/NC(=O)CN(C)C)n1.Cl.Cl [2,6-bis[1-[[(dimethylamino)acetyl]hydrazono]ethyl]pyridine dihydrochloride] |  |  |  |  | IC50 (P. falciparum [2]; Table 4, in culture): 1.5 µM; % depol. hemoz. (synthetic hemozoin; Table 4): 0% |
| CCNc1sc2c(C)c(O)c3ccccc3c2[n+]1CC.[Cl-] [1-ethyl-2-(ethylimino)-1,2-dihydro-4-methylnaphtho[1,2-d]thiazol-5-ol monohydrochloride] |  |  | 2.5 | 2.4 |  |
| Cl.N=C(N)NN=Cc1ccccc1O [2-[(2-hydroxyphenyl)methylene]hydrazinecarboximidamide hydrochloride] | 3.5 | 3.5 |  |  |  |
| COc1ccc(C=NNC(=N)N)c(O)c1 [2-[(2-hydroxy-4-methoxyphenyl)methylene]hydrazinecarboximidamide hydrochloride] | 1 |  |  |  |  |
| Cc1c(O)c2ccccc2c2c1sc(NC1CCCCC1)[n+]2CCO.[Cl-] [2-(cyclohexylimino)-5-hydroxy-4-methylnaphtho[1,2-d]thiazole-1(2H)-ethanol monohydrochloride] |  |  | 1 | 0.4 |  |
| CC(CCC1=C(C)C(=O)c2ccccc2C1=O)=NNC(=N)N.Cl [2-[3-(1,4-dihydro-1,4-dioxo-3-methyl-2-naphthalenyl)-1-methylpropylidene]hydrazinecarboximidamide hydrochloride] |  |  |  |  | IC50 (P. falciparum [2]; Table 4, in culture): 1.3 µM; % depol. hemoz. (synthetic hemozoin; Table 4): 0.1% |
| Cl.N=C(N)NN=CCc1ccc(O)c(O)c1 [2-[(3,4-dihydroxyphenyl)ethylidene]hydrazinecarboximidamide hydrochloride] | > 10 | 0.5 |  |  |  |
| C=CCNc1nc2c(s1)c(C)c(O)c1ccccc12.Cl [4-methyl-2-(2-propenylamino)naphtho[1,2-d]thiazol-5-ol monohydrochloride] |  |  | 6.3 | 0.4 |  |
| Cc1c(O)c2ccccc2c2nc(Nc3ccccc3)sc12.Cl [1,2-dihydro-4-methyl-2-(phenylimino)naphtho[1,2-d]thiazol-5-ol monohydrochloride] |  |  | 4.2 | 0.0 |  |
| Cl.N=C(N)NN=CCc1ccccc1O [2-[(2-hydroxyphenyl)ethylidene]hydrazinecarboximidamide hydrochloride] | > 10 | 0.4 |  |  |  |
| C=CCNc1sc2c(C)c(O)c3ccccc3c2[n+]1CC=C.[Cl-] [1,2-dihydro-4-methyl-1-(2-propenyl)-2-(2-propenylimino)naphtho[1,2-d]thiazol-5-ol monohydrochloride] |  |  | 6 | 4.8 |  |
| CC(=NNC(=N)N)c1cccc(-c2cc(C)n(C)c(=N)n2)c1 [2-[[3-(3,4-dimethyl-2(3H)-imino-6-pyrimidinyl)phenyl]ethylidene]hydrazinecarboximidamide hydrochloride hydroiodide] |  |  |  |  | IC50 (P. falciparum [1]; [3]): 1.05 µM |
| Cl.Cl.N=C(N)NN=C1CCC(=NNC(=N)N)CC1 [2,2′-(1,4-cyclohexanediylidene)bis(hydrazinecarboximidamide) dihydrochloride] |  |  |  |  | IC50 (P. falciparum [2]; Table 4, in culture): 2 µM; % depol. hemoz. (synthetic hemozoin; Table 4): 0% |
| N=C(N)NN=Cc1ccnc2ccccc12 [2-[(4-quinolinyl)methylene]hydrazinecarboximidamide hydrochloride] | 3.4 |  |  |  |  |
| COc1ccc(O)c(C=NNC(=N)N)c1.Cl [2-[(2-hydroxy-5-methoxyphenyl)methylene]hydrazinecarboximidamide hydrochloride] | 4.4 | 0.9 |  |  |  |
| CC1=CC(=O)c2cc(CC=NNC(=N)N)ccc2C1=O.Cl [2-[(1,4-dihydro-1,4-dioxo-3-methyl-7-naphthalenyl)ethylidene]hydrazinecarboximidamide hydrochloride] | 1.8 | 0.4 |  |  |  |
| Cc1c(O)c2ccccc2c2c1sc(NCCO)[n+]2C.[Cl-] [1,2-dihydro-2-[(2-hydroxyethyl)imino]-1,4-dimethylnaphtho[1,2-d]thiazol-5-ol monohydrochloride] |  |  | 1.4 | 3.1 |  |
